PMC10591454 (European journal of medicinal chemistry, 2021)
In brackets after ≈: the same amount, converted by molar mass. Where two headings read alike, the source gives them in different places.

What was measured:
HBV [1] = details: effective concentration 90%; cited from earlier work
[2] = tested on: HBV DNA, HBsAg and pregenomic RNA; details: after 28 days of treatment with GLS4; cited from earlier work
HBV [3] = assay: HBV replication inhibition assay; format: cell-based, HBV genotype D; details: for anti-HBV activity in words: initial screening, SAR discussion; for activity at 10 µM: Hepatitis B virus, HepDES19, 72 h
HCV genotype 1a = details: read-out: GT1a EC50; HCV NS5A inhibitors; cited from earlier work
HCV genotype 1b = details: read-out: GT1b EC50; HCV NS5A inhibitors; cited from earlier work
CYP3A4 = details: cited from earlier work

Structure (SMILES): CCOC(=O)C1=C(CN2CCOCC2)NC(c2nccs2)=N[C@H]1c1ccc(F)cc1Br [GLS4, Ethyl4-(2-bromo-4-fluorophenyl)-6-(morpholinomethyl)-2-(thiazol-2-yl)-1,4-dihydropyrimidine-5-carboxylate]
- EC90 (HBV [1]): 0.0557 µg/mL (≈ 0.109 µM)
- HBV DNA, HBsAg and pregenomic RNA in patients [2]: strong downward trend

Structure (SMILES): CCOC(=O)C1=C(CN2CCC3(CCNC3)C2=O)NC(c2nccs2)=NC1c1ccc(F)cc1Br (stereo not drawn) [Compound 5b, ethyl 4-(2-bromo-4-fluorophenyl)-6-((1-oxo-2,7-diazaspiro[4.4]nonan-2-yl)methyl)-2-(thiazol-2-yl)-1,4-dihydropyrimidine-5-carboxylate]
- anti-HBV activity in words (HBV [3]): inactive

Structure (SMILES): Nc1ccn([C@@H]2CS[C@H](CO)O2)c(=O)n1 [Compound 3TC, lamivudine]
- activity at 10 µM (HBV [3]; read-out: Minus DNA (%) (10μM)): 54.6%
- activity at 10 µM (HBV [3]; read-out: Plus DNA (%) (10μM)): 16.2%

Structure (SMILES): COC(=O)N[C@H](C(=O)N1CC2(CC2)C[C@H]1c1nc(-c2ccc3c(c2)C(F)(F)c2cc(-c4ccc5[nH]c([C@@H]6[C@H]7CC[C@H](C7)N6C(=O)[C@@H](NC(=O)OC)C(C)C)nc5c4)ccc2-3)c[nH]1)C(C)C [Ledipasvir]
- EC50 (HCV genotype 1a): 0.031 nM
- EC50 (HCV genotype 1b): 0.004 nM

Structure (SMILES): C[C@@H](O[C@H]1OCCN(Cc2n[nH]c(=O)[nH]2)[C@H]1c1ccc(F)cc1)c1cc(C(F)(F)F)cc(C(F)(F)F)c1 [Aprepitant]
- CYP3A4 inhibition in words (CYP3A4): moderate CYP3A4 inhibitor

Structure (SMILES): CCOC(=O)C1=C(CN2CCC3(CCNC3)CC2)NC(c2nccs2)=NC1c1ccc(F)cc1Br (stereo not drawn) [Compound 5e, ethyl 6-((2,8-diazaspiro[4.5]decan-8-yl)methyl)-4-(2-bromo-4-fluorophenyl)-2-(thiazol-2-yl)-1,4-dihydropyrimidine-5-carboxylate]
- anti-HBV activity in words (HBV [3]): inactive

Structure (SMILES): CCOC(=O)C1=C(CN2CC3(CCNC3)CC2=O)NC(c2nccs2)=NC1c1ccc(F)cc1Br (stereo not drawn) [Compound 5c, ethyl 4-(2-bromo-4-fluorophenyl)-6-((3-oxo-2,7-diazaspiro[4.4]nonan-2-yl)methyl)-2-(thiazol-2-yl)-1,4-dihydropyrimidine-5-carboxylate]
- anti-HBV activity in words (HBV [3]): inactive

Structure (SMILES): C[C@@H](OC[C@@]1(c2ccccc2)CC[C@]2(CCC(=O)N2)CN1)c1cc(C(F)(F)F)cc(C(F)(F)F)c1 [Rolapitant]
- CYP3A4 inhibition in words (CYP3A4): no inhibitory effect

Structure (SMILES): CCOC(=O)C1=C(CN2CCC3(CCNC3)C2)NC(c2nccs2)=NC1c1ccc(F)cc1Br (stereo not drawn) [Compound 5i, ethyl 6-((2,7-diazaspiro[4.4]nonan-2-yl)methyl)-4-(2-bromo-4-fluorophenyl)-2-(thiazol-2-yl)-1,4-dihydropyrimidine-5-carboxylate]
- anti-HBV activity in words (HBV [3]): inactive or less potent
